Measured values reported in paper PMC12888861, “Antibacterial activity of enmetazobactam against Acinetobacter spp.: a molecular dissection of mechanism of action and resistance determinants” (Antimicrobial Agents and Chemotherapy, 2025).
Values after ≈ are worked out from the molar mass of the structure shown.

Experiments:
[1] = system: carbapenem-susceptible A. baumannii isolates (n = 54); assay: MIC, broth microdilution (EUCAST), carbapenem-susceptible A. baumannii isolates; assay type: cell-based, Acinetobacter baumannii
How it was run: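 Clinical isolates from the Spanish National Acinetobacter spp. 2020 collection were tested by EUCAST v.15 broth microdilution, including enmetazobactam on its own. Duplicate runs used A. baumannii ATCC 19606 as reference.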

[2] = system: A. baumannii ATCC 19606 cells; assay: Cell morphology assay, bright-field microscopy; assay type: cell-based, Acinetobacter baumannii; settings: A. baumannii ATCC 19606, overnight exposure at 1× MIC
Experimental: In order to confirm the involvement of PBPs as targets of enmetazobactam, cell morphology assays involving exposure to enmetazobactam and sulbactam were performed following the methodology described in Supplementary materials and methods.
To confirm the involvement of PBPs as targets of enmetazobactam, the cellular morphology of A. baumannii ATCC 19606 reference strain was analyzed after exposure to the compound at different concentrations. Bright-field microscopy was used to monitor the cell morphology. […] For microscopic visualization, aliquots of each sample were obtained, stained with crystal violet solution and observed using an Olympus BX61 microscope (Olympus).
Changes in cell morphology were determined on the basis of alterations in septal integrity, abnormal elongation, spheroplast formation and filamentation, patterns previously associated with the selective inhibition of PBP1, PBP2 and PBP3 in Gram-negative bacilli. Specifically, PBP1 inhibition has been linked to cell lysis, PBP2 inhibition has been linked to spherification, and PBP3 inhibition to defective cell division and filament formation (1, 2). The results were qualitatively compared across different treatments to infer the potential selectivity of enmetazobactam for specific PBPs.

[3] = Acinetobacter baumannii, carbapenem-susceptible A. baumannii isolates (n = 54), ETZ fixed 8 mg/L in combinations

CC1(C)[C@H](C(=O)O)N2C(=O)C[C@H]2S1(=O)=O [sulbactam]
MIC distribution 0.12 [1]: 0
MIC distribution 0.25 [1]: 0
MIC distribution 0.5 [1]: 27.8
MIC distribution 1 [1]: 79.6
MIC distribution 2 [1]: 96.3
MIC distribution 4 [1]: 100
MIC distribution 8 [1]: 100
MIC distribution 16 [1]: 100
MIC distribution ≤0.06 [1]: 0
MIC distribution ≥32 [1]: 100
MIC ([1]; Acinetobacter baumannii, MBC set, isolate Ab1, A. baumannii ST 164, ADC-6, OXA-91, non-CHDLs-producing): 0.5 mg/L (≈ 2.14 µM)
MIC ([1]; Acinetobacter baumannii, MBC set, isolate Ab11, A. baumannii ST 239, ADC-2, OXA-51, non-CHDLs-producing): 1 mg/L (≈ 4.29 µM)
MIC ([1]; Acinetobacter baumannii, MBC set, isolate Ab34, A. baumannii ST 2182, ADC-2, OXA-130, non-CHDLs-producing): 0.5 mg/L (≈ 2.14 µM)
MIC ([1]; Acinetobacter baumannii, isolate Ab1, ST 164, ADC-6, OXA-91, in combinations ETZ fixed at 8 mg/L): 1 mg/L
MIC ([1]; Acinetobacter baumannii, isolate Ab11, ST 239, ADC-2, OXA-51, in combinations ETZ fixed at 8 mg/L): 1 mg/L
MIC ([1]; Acinetobacter baumannii, isolate Ab34, ST 2182, ADC-2, OXA-130, in combinations ETZ fixed at 8 mg/L): 0.5 mg/L
MIC ([1]; Acinetobacter baumannii, isolate Ab38, ST 866, ADC-2, OXA-385, in combinations ETZ fixed at 8 mg/L): 1 mg/L
MIC ([1]; Acinetobacter baumannii, isolate Ab40, ST 2176, ADC-2, OXA-64, in combinations ETZ fixed at 8 mg/L): 1 mg/L
MIC ([1]; Acinetobacter baumannii, isolate Ab50, ST 2176, ADC-2, OXA-64, in combinations ETZ fixed at 8 mg/L): 1 mg/L
MIC ([1]; Acinetobacter baumannii, isolate Ab57, ST 1470, ADC-58, OXA-106, in combinations ETZ fixed at 8 mg/L): 1 mg/L
MIC ([1]; Acinetobacter baumannii, isolate Ab58, ST 6, ADC-2, OXA-94, in combinations ETZ fixed at 8 mg/L): 2 mg/L
MIC ([1]; Acinetobacter baumannii, isolate Ab61, ST 1639, ADC-7, OXA-64, in combinations ETZ fixed at 8 mg/L): 2 mg/L
MIC ([1]; Acinetobacter baumannii, isolate Ab62, ST 265, ADC-2, OXA-91, in combinations ETZ fixed at 8 mg/L): 1 mg/L
MIC ([1]; Acinetobacter baumannii, isolate Ab67, ST 1, ADC-11, OXA-69, in combinations ETZ fixed at 8 mg/L): 1 mg/L
MIC ([1]; Acinetobacter baumannii, isolate Ab79, ST 106, ADC-11, OXA-78, in combinations ETZ fixed at 8 mg/L): 1 mg/L
MIC ([1]; Acinetobacter baumannii, isolate Ab80, ST 2182, ADC-6, OXA-208, in combinations ETZ fixed at 8 mg/L): 4 mg/L
MIC ([1]; Acinetobacter baumannii, isolate Ab81, ST 25, ADC-79, OXA-64, in combinations ETZ fixed at 8 mg/L): 2 mg/L
MIC ([1]; Acinetobacter baumannii, isolate Ab93, ST 25, ADC-79, OXA-64, in combinations ETZ fixed at 8 mg/L): 1 mg/L
MIC ([1]; Acinetobacter baumannii, isolate Ab95, ST 582, ADC-5, OXA-317, in combinations ETZ fixed at 8 mg/L): 1 mg/L
MIC ([1]; Acinetobacter baumannii, isolate Ab96, ST 582, ADC-5, OXA-317, in combinations ETZ fixed at 8 mg/L): 1 mg/L
MIC ([1]; Acinetobacter baumannii, isolate Ab100, ST 145, ADC-58, OXA-343, in combinations ETZ fixed at 8 mg/L): 1 mg/L
MIC ([1]; Acinetobacter baumannii, isolate Ab110, ST 1623, ADC-3, OXA-70, in combinations ETZ fixed at 8 mg/L): 1 mg/L
MIC ([1]; Acinetobacter baumannii, isolate Ab112, ST 193, ADC-like, OXA-120, in combinations ETZ fixed at 8 mg/L): 0.5 mg/L
MIC ([1]; Acinetobacter baumannii, isolate Ab124, ST 2176, ADC-2, OXA-64, in combinations ETZ fixed at 8 mg/L): 1 mg/L
MIC ([1]; Acinetobacter baumannii, isolate Ab127, ST 2176, ADC-2, OXA-64, in combinations ETZ fixed at 8 mg/L): 2 mg/L
MIC ([1]; Acinetobacter baumannii, isolate Ab128, ST 2176, ADC-2, OXA-64, in combinations ETZ fixed at 8 mg/L): 1 mg/L
MIC ([1]; Acinetobacter baumannii, isolate Ab130, ST 32, ADC-79, OXA-100, in combinations ETZ fixed at 8 mg/L): 2 mg/L
MIC ([1]; Acinetobacter baumannii, isolate Ab131, ST 687, ADC-like, OXA-208, in combinations ETZ fixed at 8 mg/L): 1 mg/L
MIC ([1]; Acinetobacter baumannii, isolate Ab132, ST 1112, ADC-79, OXA-89, in combinations ETZ fixed at 8 mg/L): 2 mg/L
MIC ([1]; Acinetobacter baumannii, isolate Ab136, ST 2183, ADC-like, OXA-66, in combinations ETZ fixed at 8 mg/L): 1 mg/L
MIC ([1]; Acinetobacter baumannii, isolate Ab139, ST 54, ADC-like, OXA-365, in combinations ETZ fixed at 8 mg/L): 1 mg/L
MIC ([1]; Acinetobacter baumannii, isolate Ab142, ST 1, ADC-like, OXA-69, in combinations ETZ fixed at 8 mg/L): 4 mg/L
MIC ([1]; Acinetobacter baumannii, isolate Ab143, ST 1328, ADC-76, OXA-408, in combinations ETZ fixed at 8 mg/L): 2 mg/L
MIC ([1]; Acinetobacter baumannii, isolate Ab149, ST 1112, ADC-6, OXA-407, in combinations ETZ fixed at 8 mg/L): 1 mg/L
MIC ([1]; Acinetobacter baumannii, isolate Ab150, ST 2184, ADC-like, OXA-64, in combinations ETZ fixed at 8 mg/L): 2 mg/L
MIC ([1]; Acinetobacter baumannii, isolate Ab152, ST 132, ADC-2, OXA-120, in combinations ETZ fixed at 8 mg/L): 1 mg/L
MIC ([1]; Acinetobacter baumannii, isolate Ab158, ST 2034, ADC-2, OXA-217, in combinations ETZ fixed at 8 mg/L): 0.5 mg/L
MIC ([1]; Acinetobacter baumannii, isolate Ab163, ST 132, ADC-2, OXA-120, in combinations ETZ fixed at 8 mg/L): 0.5 mg/L
MIC ([1]; Acinetobacter baumannii, isolate Ab167, ST 1623, ADC-like, OXA-345, in combinations ETZ fixed at 8 mg/L): 0.5 mg/L
MIC ([1]; Acinetobacter baumannii, isolate Ab168, ST 1470, ADC-75, OXA-402, in combinations ETZ fixed at 8 mg/L): 0.5 mg/L
MIC ([1]; Acinetobacter baumannii, isolate Ab170, ST 2110, ADC-4, OXA-338, in combinations ETZ fixed at 8 mg/L): 1 mg/L
MIC ([1]; Acinetobacter baumannii, isolate Ab172, ST 2185, ADC-5, OXA-217, in combinations ETZ fixed at 8 mg/L): 2 mg/L
MIC ([1]; Acinetobacter baumannii, isolate Ab185, ST 2, ADC-26, OXA-66, in combinations ETZ fixed at 8 mg/L): 1 mg/L
MIC ([1]; Acinetobacter baumannii, isolate Ab187, ST 105, ADC-2, OXA-430, in combinations ETZ fixed at 8 mg/L): 1 mg/L
MIC ([1]; Acinetobacter baumannii, isolate Ab188, ST 203, ADC-6, OXA-217, PDC-1, in combinations ETZ fixed at 8 mg/L): 1 mg/L
MIC ([1]; Acinetobacter baumannii, isolate Ab189, ST 1405, ADC-3, OXA-120, in combinations ETZ fixed at 8 mg/L): 0.5 mg/L
MIC ([1]; Acinetobacter baumannii, isolate Ab190, ST 2186, ADC-6, OXA-413, in combinations ETZ fixed at 8 mg/L): 0.5 mg/L
MIC ([1]; Acinetobacter baumannii, isolate Ab193, ST 164, ADC-6, OXA-91, in combinations ETZ fixed at 8 mg/L): 0.5 mg/L
MIC ([1]; Acinetobacter baumannii, isolate Ab195, ST 1, ADC-11, OXA-69, in combinations ETZ fixed at 8 mg/L): 1 mg/L
MIC ([1]; Acinetobacter baumannii, isolate Ab200, ST 1336, ADC-2, OXA-51, in combinations ETZ fixed at 8 mg/L): 0.5 mg/L
MIC ([1]; Acinetobacter baumannii, isolate Ab202, ST 1, ADC-11, OXA-69, in combinations ETZ fixed at 8 mg/L): 1 mg/L
MIC ([1]; Acinetobacter baumannii, isolate Ab203, ST 221, ADC-6, OXA-88, in combinations ETZ fixed at 8 mg/L): 0.5 mg/L
MIC ([1]; Acinetobacter baumannii, isolate Ab206, ST 2187, ADC-58, OXA-69, in combinations ETZ fixed at 8 mg/L): 0.5 mg/L
MIC ([1]; Acinetobacter baumannii, isolate Ab209, in combinations ETZ fixed at 8 mg/L): 0.5 mg/L
MIC ([1]; Acinetobacter baumannii, isolate Ab213, in combinations ETZ fixed at 8 mg/L): 0.5 mg/L
MIC ([1]; Acinetobacter baumannii, isolate Ab218, in combinations ETZ fixed at 8 mg/L): 1 mg/L
MIC ([1]; Acinetobacter baumannii, isolate Ab220, in combinations ETZ fixed at 8 mg/L): 0.5 mg/L
MIC50 [1, 3]: 1 mg/L
MIC90 [1, 3]: 2 mg/L
cell morphology [2]: long filaments
